Data on 1 compound can be found in EP4420661B1, “SMALL MOLECULES TARGETING GLYCOPROTEIN VI AS ANTIPLATELET AGENTS FOR USE IN THE PREVENTION AND/OR TREATMENT OF THROMBOSIS AND ASSOCIATED PATHOLOGIES” (Universidade de Santiago de Compostela, priority 2023, dated 2024).

Molecules are shown by their SMILES.

For one data set, the system named is human platelets. The data set can be described thus: intracellular Ca+2 mobilization assay, CRP-activated washed platelets (FLIPR Calcium 4). The format is cell-based. To be noted: Platelet, calcium mobilization in human platelets, read-out: % Inhibition of CRP effect at 1µM, Mean. Here is the method:
An intracellular Ca^+2 mobilization assay was used to test the activity of the ligands in platelets. This assay measures the changes in calcium in real time by fluorophore dye Calcium 4, providing a useful way to characterize platelet activation by GPVI signaling [Barrachina et al. (2021)].
Washed platelets (5x10E6) were incubated with FLIPR Calcium 4 reagent (Molecular Devices LLC, San Jose, CA, USA) in a 384-well transparent bottom plate (Greiner Bio-One International GmbH, Kremsmünster, Austria) and supplemented with Probenecid (Invitrogen™, Carlsbad, CA, USA) 0.07% for 1 h at 37 °C. Platelets were co-incubated for 10 min with the tested compounds and inhibitors of secondary mediators (2 U/mL apyrase and 10 microM indomethacin (Sigma-Aldrich, Saint Louis, MO, USA)) under nonaggregating conditions (9 microM eptifibatide (Cayman Chemicals, Ann Arbor, MI, USA)). Then, the GPVI-specific agonist Collagen-Related Peptide (CRP) was added to the platelet suspension at different doses. Both potential GPVI inhibitors and CRP were automatically dispensed by FDSS7000EX Functional Drug Screening System (Hamamatsu Photonics, Hamamatsu, Japan). Intracellular Ca^2+ mobilization was assessed by measuring fluorescence changes ([…] wavelengths) in real time for 15 min after the addition of the agonist. 100% was expressed as maximal Ca^2+ release in platelets treated with the agonist CRP. To determine IC50, compounds were tested at 9 different concentrations in duplicates starting from 10 uM and performing 1:3 serial dilutions. The analysis of the data was performed with GraphPad Prism® software (version 6.0e, March 2014) (GraphPad Software, San Diego, CA, USA) by carrying out a nonlinear regression fit for log(inhibitor) vs. relative CRP activity using a Hill slope of -1, and top and bottom constraints of 100 and 0, respectively.
In general terms: A change in cytosolic calcium serves as a functional read-out for many receptors and channels.

A short description of data set [1]: plasma protein binding, Rapid Equilibrium Dialysis (RED), rat. To be noted: 4h at 37°C. The format is in vitro ADME. Here is the method:
(§1) Plasma from Seralab was employed in the assay and was carried out by employing Rapid Equilibrium Dialysis (RED) from Thermo Scientific.
(§2) The compounds were dissolved at 5 µM in plasma and added to the corresponding insert of the RED device. Dialysis buffer was added to the corresponding insert of the RED device. Plate was incubated for 4h at 37°C.
(§3) After the incubation period 50 µL aliquots of each chamber were transferred to empty vials. 50 µL of dialysis buffer were added to the plasma samples and 50 µL of plasma were added to the buffer samples. 300 µL of acetonitrile were added to all the samples and centrifuged at 4000 rpm 100 µL aliquots of the supernatants were transferred to a LC analysis plate. Samples were analyzed in a UPLC/MS/MS. Stationary phase: Acquity UPLC® BEHC18 1,7 µm (2.1 mm x 50 mm) (Waters). Gradient: A (H2O + 0.1% Formic acid); B (ACN + 0.1% Formic acid); Flow: 0.6mL/min Table 8: UPLC gradient / Protein binding assay
(§4) The chromatographic equipment employed was an ACQUITY UPLC / Xevo TQD System. Compound concentrations were calculated from the MS peak areas. Table 9: Plasma protein binding of the compounds of formula (I) in rat, mice, dogs and humans / (*) low recovery
For orientation: In equilibrium dialysis only unbound substance equilibrates across the membrane.

A further data set relates to Plasma protein. The data set is described as above. Conditions: 5 µM, 4h at 37°C. The format is in vitro ADME. Here is the method:
as §1, §2, §3, §4

As usually defined, the inhibition is the change of the read-out against control, counted positive when it falls. One may read the fraction unbound as the share of the substance not bound to proteins or other matrix. Low readings indicate extensive binding, high ones weak binding. As for `O=C(Cc1ccc2c(c1)OCCO2)Nc1nc(-c2ccc3c(c2)CCC(=O)N3)cs1` [Compound (If)], the inhibition at 1 µM in the data set with human platelets worked out at 31%. Also, the fraction unbound at 4 h, 5 µM in data set [1] came to 0.001. For the same compound, the Unbound fraction with Plasma protein is on record as 0.10%.
